#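 Briefly, cells in 96-well plates were exposed to five compound concentrations for 48 h, and endpoints were estimated by linear interpolation. GI50 is the concentration that inhibits growth by half.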 Activity calls are given as the source filed them. Cut-off read from the data, not from the text of the source: active = GI50 up to about 1.1 µM and inactive = higher.
# How the values were obtained:
# Test in all cases: NCI anticancer screen, dose series, 48 h
# 786-0 = test system: 786-0
# A498 = test system: A498
# COLO 205 = test system: COLO 205
# HCT-15 = test system: HCT-15
# HOP-62 = test system: HOP-62
# K562 = test system: K562
# KM12 = test system: KM12
# MDA-MB-435 = test system: MDA-MB-435
# Malme-3M = test system: Malme-3M
# NCI-H23 = test system: NCI-H23
# NCI-H522 = test system: NCI-H522
# NCI/ADR-RES = test system: NCI/ADR-RES
# PC-3 = test system: PC-3
# SF-268 = test system: SF-268
# SK-MEL-28 = test system: SK-MEL-28
# SN12C = test system: SN12C
# T47D = test system: T47D
# U-251 = test system: U-251
# UACC-257 = test system: UACC-257
# UO-31 = test system: UO-31
Compound,GI50 (786-0),GI50 (A498),GI50 (COLO 205),GI50 (HCT-15) [µM],GI50 (HOP-62),GI50 (K562),GI50 (KM12),GI50 (MDA-MB-435),GI50 (Malme-3M),GI50 (NCI-H23),GI50 (NCI-H522),GI50 (NCI/ADR-RES),GI50 (PC-3),GI50 (SF-268),GI50 (SK-MEL-28),GI50 (SN12C),GI50 (T47D),GI50 (U-251),GI50 (UACC-257),GI50 (UO-31)
Cc1nc2c(C)c3c([nH]c4ccc(Cl)cc43)c(C)c2c(O)c1C,3.99 µM (inactive),15.3 µM (inactive),5.53 µM (inactive),3.21,4.23 µM (inactive),7.5 µM (inactive),10.4 µM (inactive),6.34 µM (inactive),8.43 µM (inactive),4.68 µM (inactive),4.16 µM (inactive),8.39 µM (inactive),5.89 µM (inactive),16.1 µM (inactive),10.8 µM (inactive),5.24 µM (inactive),4.66 µM (inactive),5.73 µM (inactive),13.9 µM (inactive),3.66 µM (inactive)
CCOc1ccc(C2c3[nH]c4ccccc4c3CCN2C(=O)c2cccs2)cc1 (stereo not given),9.18 µM (inactive),7.4 µM (inactive),8.47 µM (inactive),1.74,4.67 µM (inactive),2.34 µM (inactive),9.08 µM (inactive),6.61 µM (inactive),88.5 µM (inactive),56.4 µM (inactive),9.79 µM (inactive),6.43 µM (inactive),4.59 µM (inactive),52.4 µM (inactive),> 100 µM (inactive),> 100 µM (inactive),5.9 µM (inactive),4.07 µM (inactive),17.3 µM (inactive),14.2 µM (inactive)
CC(=O)OCC1OC(n2c3c(cc(C#N)c2=S)CCC3)C(OC(C)=O)C(OC(C)=O)C1OC(C)=O (stereo not given),> 100 µM (inactive),> 100 µM (inactive),> 100 µM (inactive),> 100,> 100 µM (inactive),> 100 µM (inactive),> 100 µM (inactive),> 100 µM (inactive),> 100 µM (inactive),> 100 µM (inactive),> 100 µM (inactive),> 100 µM (inactive),> 100 µM (inactive),> 100 µM (inactive),> 100 µM (inactive),> 100 µM (inactive),> 100 µM (inactive),> 100 µM (inactive),> 100 µM (inactive),> 100 µM (inactive)
Cc1ccc([N+](=O)[O-])cc1NC1=NCCO1,> 100 µM (inactive),> 100 µM (inactive),> 100 µM (inactive),> 100,> 100 µM (inactive),> 100 µM (inactive),> 100 µM (inactive),> 100 µM (inactive),> 100 µM (inactive),> 100 µM (inactive),> 100 µM (inactive),> 100 µM (inactive),> 100 µM (inactive),> 100 µM (inactive),> 100 µM (inactive),> 100 µM (inactive),> 100 µM (inactive),> 100 µM (inactive),> 100 µM (inactive),> 100 µM (inactive)
COc1ccc2/c(=C/c3ccc(N(C)C)cc3)c3cc(-c4ccccc4)[n+](C)n3c2c1,0.161 µM (active),0.408 µM (active),0.0264 µM (active),1,0.345 µM (active),0.057 µM (active),0.192 µM (active),0.0875 µM (active),0.191 µM (active),0.158 µM (active),0.153 µM (active),9.66 µM (inactive),0.09 µM (active),0.292 µM (active),0.164 µM (active),0.223 µM (active),0.0805 µM (active),< 0.0318 µM (active),0.135 µM (active),0.735 µM (active)
Cc1ccc2nc(-c3ccccc3)c(N=O)n2c1,40.9 µM (inactive),> 100 µM (inactive),35.7 µM (inactive),34,56 µM (inactive),91.2 µM (inactive),40.6 µM (inactive),40 µM (inactive),29.5 µM (inactive),36.1 µM (inactive),36.1 µM (inactive),46.2 µM (inactive),62.7 µM (inactive),69.2 µM (inactive),45.9 µM (inactive),20.2 µM (inactive),71 µM (inactive),38.9 µM (inactive),37 µM (inactive),66.8 µM (inactive)
COc1cccc(C[C@H]2COC(=O)[C@]2(O)Cc2cccc(OC)c2)c1,> 100 µM (inactive),> 100 µM (inactive),> 100 µM (inactive),> 100,> 100 µM (inactive),> 100 µM (inactive),91.2 µM (inactive),> 100 µM (inactive),60.5 µM (inactive),> 100 µM (inactive),55.7 µM (inactive),66.5 µM (inactive),> 100 µM (inactive),< 0.01 µM (active),> 100 µM (inactive),> 100 µM (inactive),18.1 µM (inactive),> 100 µM (inactive),> 100 µM (inactive),> 100 µM (inactive)
O=C(NCc1cccs1)OC1CC2CCC1C2 (stereo not given),> 100 µM (inactive),> 100 µM (inactive),> 100 µM (inactive),> 100,> 100 µM (inactive),> 100 µM (inactive),> 100 µM (inactive),> 100 µM (inactive),> 100 µM (inactive),> 100 µM (inactive),> 100 µM (inactive),> 100 µM (inactive),> 100 µM (inactive),> 100 µM (inactive),> 100 µM (inactive),> 100 µM (inactive),> 100 µM (inactive),> 100 µM (inactive),> 100 µM (inactive),> 100 µM (inactive)
C[C@H](CCC(=O)NCC(=O)O)[C@H]1CC[C@H]2[C@@H]3[C@H](O)C[C@@H]4C[C@H](O)CC[C@]4(C)[C@H]3CC[C@]12C,> 100 µM (inactive),> 100 µM (inactive),> 100 µM (inactive),> 100,> 100 µM (inactive),> 100 µM (inactive),> 100 µM (inactive),> 100 µM (inactive),71.6 µM (inactive),> 100 µM (inactive),> 100 µM (inactive),> 100 µM (inactive),> 100 µM (inactive),> 100 µM (inactive),> 100 µM (inactive),> 100 µM (inactive),> 100 µM (inactive),> 100 µM (inactive),> 100 µM (inactive),> 100 µM (inactive)
CC(=O)OC1CC2CC(=O)CC1N2C (stereo not given),> 100 µM (inactive),> 100 µM (inactive),> 100 µM (inactive),> 100,> 100 µM (inactive),> 100 µM (inactive),> 100 µM (inactive),> 100 µM (inactive),> 100 µM (inactive),> 100 µM (inactive),> 100 µM (inactive),> 100 µM (inactive),> 100 µM (inactive),> 100 µM (inactive),> 100 µM (inactive),> 100 µM (inactive),> 100 µM (inactive),> 100 µM (inactive),> 100 µM (inactive),> 100 µM (inactive)

# From ChEMBL document CHEMBL1201862, “PubChem BioAssay data set” (2004)
